Experiment: xn = mol fraction of the nth substance listed
Details: 100 kPa

CCCCCCCC[n+]1ccccc1.[Br-] + CC(C)C[C@H](N)C(=O)O + O
Details | electrical conductivity [S/m]
288.15 K, x2 = 0.0008942, x1 = 0.006691 | 1.27
288.15 K, x2 = 0.0008943, x1 = 0.006585 | 1.26
288.15 K, x2 = 0.0008945, x1 = 0.006321 | 1.23
288.15 K, x2 = 0.0008948, x1 = 0.005952 | 1.19
288.15 K, x2 = 0.0008952, x1 = 0.005558 | 1.15
288.15 K, x2 = 0.0008956, x1 = 0.005126 | 1.11
288.15 K, x2 = 0.000896, x1 = 0.004648 | 1.05
288.15 K, x2 = 0.0008965, x1 = 0.00414 | 0.989
288.15 K, x2 = 0.000897, x1 = 0.003579 | 0.891
288.15 K, x2 = 0.0008975, x1 = 0.002951 | 0.778
288.15 K, x2 = 0.0008982, x1 = 0.002257 | 0.635
288.15 K, x2 = 0.0008986, x1 = 0.001784 | 0.529
288.15 K, x2 = 0.000899, x1 = 0.001328 | 0.417
288.15 K, x2 = 0.0008994, x1 = 0.0008528 | 0.298
288.15 K, x2 = 0.001786, x1 = 0.007009 | 1.29
288.15 K, x2 = 0.001787, x1 = 0.006296 | 1.21
288.15 K, x2 = 0.001787, x1 = 0.006626 | 1.25
288.15 K, x2 = 0.001788, x1 = 0.005936 | 1.17
288.15 K, x2 = 0.001789, x1 = 0.005553 | 1.12
288.15 K, x2 = 0.00179, x1 = 0.004654 | 1.02
288.15 K, x2 = 0.00179, x1 = 0.005124 | 1.08
288.15 K, x2 = 0.001791, x1 = 0.004138 | 0.963
288.15 K, x2 = 0.001792, x1 = 0.00359 | 0.869
288.15 K, x2 = 0.001793, x1 = 0.002944 | 0.753
288.15 K, x2 = 0.001795, x1 = 0.001946 | 0.545
288.15 K, x2 = 0.001795, x1 = 0.002309 | 0.625
288.15 K, x2 = 0.001796, x1 = 0.00149 | 0.443
288.15 K, x2 = 0.001797, x1 = 0.0009613 | 0.319
293.15 K, x2 = 0.0008942, x1 = 0.006678 | 1.44
293.15 K, x2 = 0.0008943, x1 = 0.006573 | 1.42
293.15 K, x2 = 0.0008945, x1 = 0.00631 | 1.39
293.15 K, x2 = 0.0008948, x1 = 0.005941 | 1.35
293.15 K, x2 = 0.0008952, x1 = 0.005547 | 1.3
293.15 K, x2 = 0.0008956, x1 = 0.005117 | 1.26
293.15 K, x2 = 0.000896, x1 = 0.004639 | 1.19
293.15 K, x2 = 0.0008965, x1 = 0.004133 | 1.12
293.15 K, x2 = 0.000897, x1 = 0.003572 | 1.01
293.15 K, x2 = 0.0008975, x1 = 0.002945 | 0.879
293.15 K, x2 = 0.0008982, x1 = 0.002253 | 0.718
293.15 K, x2 = 0.0008986, x1 = 0.001782 | 0.597
293.15 K, x2 = 0.000899, x1 = 0.001327 | 0.47
293.15 K, x2 = 0.0008994, x1 = 0.000851 | 0.333
293.15 K, x2 = 0.001786, x1 = 0.006996 | 1.47
293.15 K, x2 = 0.001787, x1 = 0.006286 | 1.38
293.15 K, x2 = 0.001787, x1 = 0.006613 | 1.43
293.15 K, x2 = 0.001788, x1 = 0.005926 | 1.33
293.15 K, x2 = 0.001789, x1 = 0.005542 | 1.28
293.15 K, x2 = 0.00179, x1 = 0.004645 | 1.16
293.15 K, x2 = 0.00179, x1 = 0.005113 | 1.23
293.15 K, x2 = 0.001791, x1 = 0.004131 | 1.09
293.15 K, x2 = 0.001792, x1 = 0.003584 | 0.986
293.15 K, x2 = 0.001793, x1 = 0.002938 | 0.852
293.15 K, x2 = 0.001795, x1 = 0.001937 | 0.616
293.15 K, x2 = 0.001795, x1 = 0.002304 | 0.706
293.15 K, x2 = 0.001796, x1 = 0.001487 | 0.497
293.15 K, x2 = 0.001797, x1 = 0.0009613 | 0.359
298.15 K, x2 = 0.0008942, x1 = 0.006669 | 1.62
298.15 K, x2 = 0.0008943, x1 = 0.006564 | 1.6
298.15 K, x2 = 0.0008945, x1 = 0.006301 | 1.57
298.15 K, x2 = 0.0008948, x1 = 0.005934 | 1.52
298.15 K, x2 = 0.0008952, x1 = 0.00554 | 1.47
298.15 K, x2 = 0.0008956, x1 = 0.00511 | 1.41
298.15 K, x2 = 0.000896, x1 = 0.004634 | 1.34
298.15 K, x2 = 0.0008965, x1 = 0.004127 | 1.25
298.15 K, x2 = 0.000897, x1 = 0.003568 | 1.13
298.15 K, x2 = 0.0008975, x1 = 0.002942 | 0.987
298.15 K, x2 = 0.0008982, x1 = 0.002249 | 0.803
298.15 K, x2 = 0.0008986, x1 = 0.00178 | 0.668
298.15 K, x2 = 0.000899, x1 = 0.001325 | 0.525
298.15 K, x2 = 0.0008994, x1 = 0.000851 | 0.369

— the CheMixHub ionic liquid set
